# Measurements: BindingDB's records for doi:10.1016/j.ejmech.2018.11.015 (Fudan University, 2019)
# Assay: Inhibition of PB2 in Influenza A virus (A/Weiss/1943(H1N1)) infected in MDCK cells assessed as reduction in virus induced cell death after 5 days by CCK-8 assay
row,SMILES,EC50
1,O=C(O)[C@H]1C2CCC(CC2)[C@@H]1Nc1nc(-c2c[nH]c3ncc(F)cc23)ncc1F,0.6 nM
2,O=C(O)[C@H]1C2CCC(CC2)[C@@H]1N1CCOc2cnc(-c3c[nH]c4ncc(F)cc34)nc21,24 nM
3,Cn1cc(F)c2c(N[C@H]3C4CCC(CC4)[C@@H]3C(=O)O)nc(-c3c[nH]c4ncc(F)cc34)nc21,9.6 nM
4,O=C(O)[C@H]1C2CCC(CC2)[C@@H]1Nc1nc(-c2c[nH]c3ncc(F)cc23)nc2c1CCS2,2.8 nM
5,N#Cc1cn([C@H]2C3CCC(CC3)[C@@H]2C(=O)O)c2nc(-c3c[nH]c4ncc(F)cc34)ncc12,70 nM
6,N#Cc1csc2c(N[C@H]3C4CCC(CC4)[C@@H]3C(=O)O)nc(-c3c[nH]c4ncc(F)cc34)nc12,4 nM
7,O=C(O)[C@H]1C2CCC(CC2)[C@@H]1Nc1nc(-c2c[nH]c3ncc(F)cc23)nc2c1S(=O)(=O)CC2,110 nM
8,O=C(O)[C@H]1C2CCC(CC2)[C@@H]1Nc1nc(-c2c[nH]c3ncc(F)cc23)nc2c1CS(=O)(=O)C2,2000 nM
9,O=C(O)[C@H]1C2CCC(CC2)[C@@H]1Nc1nc(-c2n[nH]c3ncc(F)cc23)nc2ccsc12,0.5 nM
10,O=C(O)[C@H]1C2CCC(CC2)[C@@H]1Nc1nc(-c2n[nH]c3ncc(F)cc23)nc2sccc12,0.06 nM
11,O=C(O)[C@H]1C2CCC(CC2)[C@@H]1Nc1nc(-c2n[nH]c3ncc(F)cc23)nc2c1SCC2,0.2 nM
12,O=C(O)[C@H]1C2CCC(CC2)[C@@H]1Nc1nc(-n2ccc3ncc(F)cc32)ncc1F,230 nM
13,O=C(O)[C@H]1C2CCC(CC2)[C@@H]1Nc1nc(-c2c[nH]c3ccc(F)cc23)ncc1F,220 nM
14,O=C(O)[C@H]1C2CCC(CC2)[C@@H]1n1cnc2cnc(-c3c[nH]c4ncc(F)cc34)nc21,190 nM
15,O=C(O)[C@H]1C2CCC(CC2)[C@@H]1Nc1nc(-c2c[nH]c3ncc(F)cc23)nc2cccc(F)c12,20 nM
16,O=C(O)[C@H]1C2CCC(CC2)[C@@H]1Nc1nc(-c2c[nH]c3ncc(F)cc23)nc2cccnc12,14 nM
17,Cc1cccc2nc(-c3c[nH]c4ncc(F)cc34)nc(N[C@H]3C4CCC(CC4)[C@@H]3C(=O)O)c12,11 nM

row,SMILES,EC50
1,O=C(O)[C@H]1C2CCC(CC2)[C@@H]1Nc1nc(-c2c[nH]c3ncc(F)cc23)nc2nccnc12,13 nM
2,O=C(O)[C@H]1C2CCC(CC2)[C@@H]1Nc1nc(-c2c[nH]c3ncc(F)cc23)nc2c1CCCC2,12 nM
3,O=C(O)[C@H]1C2CCC(CC2)[C@@H]1Nc1nc(-c2c[nH]c3ncc(F)cc23)nc2c1CCC2,5.5 nM
4,O=C(O)[C@H]1C2CCC(CC2)[C@@H]1Nc1nc(-c2c[nH]c3ncc(F)cc23)nc2ccoc12,5.3 nM
5,O=C(O)[C@H]1C2CCC(CC2)[C@@H]1Nc1nc(-c2c[nH]c3ncc(F)cc23)nc2scnc12,3 nM
6,O=C(O)[C@H]1C2CCC(CC2)[C@@H]1Nc1nc(-c2c[nH]c3ncc(F)cc23)nc2[nH]ccc12,4.5 nM
7,Cc1cnc2c(N[C@H]3C4CCC(CC4)[C@@H]3C(=O)O)nc(-c3c[nH]c4ncc(F)cc34)nc2c1,11 nM
8,O=C(O)[C@H]1C2CCC(CC2)[C@@H]1Nc1nc(-c2c[nH]c3ncc(F)cc23)nc2cc(F)cnc12,10 nM
9,O=C(O)[C@H]1C2CCC(CC2)[C@@H]1Nc1nc(-c2c[nH]c3ncc(F)cc23)nc2ccsc12,0.5 nM
10,O=C(O)[C@H]1C2CCC(CC2)[C@@H]1Nc1nc(-c2c[nH]c3ncc(F)cc23)nc2sccc12,0.2 nM
11,O=C(O)[C@H]1C2CCC(CC2)[C@@H]1Nc1nc(-c2c[nH]c3ncc(F)cc23)nc2c1SCC2,0.4 nM
12,O=C(O)[C@H]1C2CCC(CC2)[C@@H]1Nc1nc(-c2c[nH]c3ncc(F)cc23)nc2cscc12,1.4 nM
13,O=C(O)[C@H]1C2CCC(CC2)[C@@H]1Nc1nc(-c2c[nH]c3ncc(F)cc23)nc2cc(C(F)F)sc12,10 nM
14,O=C(O)[C@H]1C2CCC(CC2)[C@@H]1n1ccc2cnc(-c3c[nH]c4ncc(F)cc34)nc21,12 nM
15,O=C(O)[C@H]1C2CCC(CC2)[C@@H]1Nc1nc(-c2c[nH]c3ncc(F)cc23)nc2c1CSC2,2.6 nM
16,Cc1cccc2nc(N[C@H]3C4CCC(CC4)[C@@H]3C(=O)O)nc(-c3c[nH]c4ncc(F)cc34)c12,450 nM
